Data published in ChEMBL document CHEMBL4330082, “Tailoring a lead-like compound targeting multiple G-quadruplex structures” (Eur J Med Chem, 2019).
Activity calls are given as the source filed them. No cut-off for these calls is given here.

Tests used:
[1] = test system: Quadruplex DNA; experiment: Binding affinity to synthetic cMYC G-quadruplex DNA assessed as residual binding at 60 uM after 4 mins by UV-Vis spectrophotometric analysis relative to control; type: nucleic-acid assay
[2] = test system: Quadruplex DNA; experiment: Binding affinity to synthetic telomeric 26 G-quadruplex DNA assessed as residual binding at 60 uM after 4 mins by UV-Vis spectrophotometric analysis relative to control; type: nucleic-acid assay
[3] = test system: HeLa; experiment: Inhibition of colony formation in human HeLa cells at 2 uM after 10 days by methylene blue staining-based assay; type: functional, cell-based
[4] = test system: dsDNA; experiment: Binding affinity to synthetic 27-mer duplex DNA assessed as residual binding at 60 uM after 4 mins by UV-Vis spectrophotometric analysis relative to control; type: nucleic-acid assay
[5] = species: Homo sapiens; experiment: Induction of telomeric DNA damage in human BJeH-LT cells expressing human TERT assessed as increase in TIF positive cells at 0.5 uM after 24 hrs by immunofluorescence assay; type: functional, cell-based
[6] = test system: Quadruplex DNA; experiment: Binding affinity to synthetic c-Kit1 G-quadruplex DNA assessed as residual binding at 60 uM after 4 mins by UV-Vis spectrophotometric analysis relative to control; type: nucleic-acid assay
[7] = species: Homo sapiens; experiment: Induction of telomeric DNA damage in human BJeH-LT cells expressing human TERT assessed as increase in gamma-histone H2AX levels at 0.5 uM after 24 hrs by immunofluorescence assay; type: functional, cell-based
[8] = test system: Quadruplex DNA; experiment: Binding affinity to synthetic c-Kit2 G-quadruplex DNA assessed as residual binding at 60 uM after 4 mins by UV-Vis spectrophotometric analysis relative to control; type: nucleic-acid assay
[9] = test system: Quadruplex DNA; experiment: Binding affinity to human TERT1 G-quadruplex DNA assessed as residual binding at 60 uM after 4 mins by UV-Vis spectrophotometric analysis relative to control; type: nucleic-acid assay
[10] = test system: Quadruplex DNA; experiment: Binding affinity to synthetic cMYC G-quadruplex DNA assessed as melting temperature compound:DNA ratio of 5:1 after 5 mins by CD spectra analysis (reference value: 82 degreeC); type: nucleic-acid assay
[11] = test system: Quadruplex DNA; experiment: Induction of conformational changes in synthetic telomeric 26 G-quadruplex DNA at 1 to 5 equivalents after 5 mins by CD spectra analysis; type: nucleic-acid assay
[12] = test system: Quadruplex DNA; experiment: Binding affinity to synthetic modified telomeric 24 G-quadruplex DNA assessed as melting temperature compound:DNA ratio of 4:1 by 1H NMR spectroscopic analysis; type: nucleic-acid assay
[13] = test system: Quadruplex DNA; experiment: Induction of conformational changes in synthetic cMYC G-quadruplex DNA at 1 to 5 equivalents after 5 mins by CD spectra analysis; type: nucleic-acid assay
[14] = test system: dsDNA; experiment: Binding affinity to synthetic 12-mer duplex DNA assessed as melting temperature compound:DNA ratio of 4:1 by 1H NMR spectroscopic analysis; type: nucleic-acid assay
[15] = target: Quadruplex DNA; experiment: Binding affinity to Cy5-fluorescently labeled synthetic MYC 22 G-quadruplex DNA by microscale thermophoresis assay; type: nucleic-acid assay
[16] = test system: dsDNA; experiment: Binding affinity to synthetic 27-mer duplex DNA assessed as melting temperature compound:DNA ratio of 5:1 after 5 mins by CD spectra analysis (reference value: 75 degreeC); type: nucleic-acid assay
[17] = test system: Quadruplex DNA; experiment: Binding affinity to synthetic MYC 22 G-quadruplex DNA assessed as melting temperature compound:DNA ratio of 4:1 by 1H NMR spectroscopic analysis; type: nucleic-acid assay
[18] = target: Quadruplex DNA; experiment: Binding affinity to Cy5-fluorescently labeled synthetic Telomeric 26 G-quadruplex DNA by microscale thermophoresis assay; type: nucleic-acid assay
[19] = test system: BJ; experiment: Cytotoxicity against in human BJ cells expressing human TERT assessed as reduction in cell viability at 1 to 2 uM incubated for 6 days by trypan blue exclusion assay; type: cell-based; conditions: 144 h
[20] = test system: Quadruplex DNA; experiment: Binding affinity to synthetic telomeric 26 G-quadruplex DNA assessed as melting temperature compound:DNA ratio of 5:1 after 5 mins by CD spectra analysis (reference value: 49 degreeC); type: nucleic-acid assay
[21] = test system: dsDNA; experiment: Induction of conformational changes in synthetic 27-mer duplex DNA at 1 to 5 equivalents after 5 mins by CD spectra analysis; type: nucleic-acid assay
[22] = test system: HeLa; experiment: Inhibition of colony formation in human HeLa cells at 0.5 to 2 uM after 10 days by methylene blue staining-based assay; type: functional

| Activity [1] | Activity [2] | Activity [4] | Activity [6] | Activity [8] | Activity [9] | SMILES | inhibition [3] | Activity [5] | Activity [7] | also measured |
| --- | --- | --- | --- | --- | --- | --- | --- | --- | --- | --- |
| 73% | 75% | 16% | 72% | 68% | 76% | O=C1c2ccccc2C(=O)c2c1oc1c3c(ccc21)OCN(CC1CCS(=O)(=O)C1)C3 (stereo not given) | Active | inactive | inactive |  |
| 90% | 78% | 20% | 88% | 83% | 87% | O=C1c2ccccc2C(=O)c2c1oc1c3c(ccc21)OCN(CC1CCCO1)C3 (stereo not given) | Active | Active | Active |  |
| 94% | 79% | 28% | 90% | 88% | 89% | O=C1c2ccccc2C(=O)c2c1oc1c3c(ccc21)OCN(Cc1cccnc1)C3 | Active | inactive | inactive |  |
| 74% | 76% | 22% | 75% | 70% | 78% | CC(=O)c1c(C)oc2c1c1c(c3ccccc32)OCN(CCCN2CCOCC2)C1 | Active | inactive | inactive |  |
| 84% | 73% | 16% | 55% | 67% | 73% | O=C1c2ccccc2C(=O)c2c1oc1c3c(ccc21)OCN(CCC1=CCCCC1)C3 | Active | Active | Active |  |
| 93% | 86% | 2% | 90% | 92% | 91% | O=C1c2ccccc2C(=O)c2c1oc1c3c(ccc21)OCN(Cc1ccco1)C3 | Active | Active | Active |  |
| 87% | 80% | 12% | 76% | 83% | 78% | O=C1c2ccccc2C(=O)c2c1oc1c3c(ccc21)OCN(Cc1ccccc1)C3 | Active | Active | Active |  |
| 89% | 80% | 33% | 77% | 84% | 92% | O=C1c2ccccc2C(=O)c2c1oc1c3c(ccc21)OCN(CCCN1CCOCC1)C3 | Active | Active | Active |  |
| 84% | 80% | 0% | 78% | 80% | 82% | CC(c1ccccc1)N1COc2ccc3c4c(oc3c2C1)C(=O)c1ccccc1C4=O (stereo not given) |  | Active | Active | Tm [10]: > 90 °C; Activity [11]: Active; Activity [12]: Active; Activity [13]: Active; Activity [14]: inactive; Kd [15]: 13 µM; Tm [16]: 76 °C; Activity [17]: Active; Kd [18]: 26 µM; Activity [19]: Non-Toxic; Tm [20]: 50 °C; Activity [21]: inactive |
| 94% | 80% | 46% | 85% | 91% | 82% | O=C1c2ccccc2C(=O)c2c1oc1c3c(ccc21)OCN(CCCn1ccnc1)C3 | Active | Active | Active |  |
| 86% | 86% | 18% | 70% | 82% | 74% | O=C1c2ccccc2C(=O)c2c1oc1c3c(ccc21)OCN(C1CCCCC1)C3 |  | Active | Active | Tm [10]: > 90 °C; Activity [11]: Active; Activity [12]: Active; Activity [13]: Active; Activity [14]: inactive; Tm [16]: 76 °C; MED [22]: 2 µM; Activity [17]: Active; Activity [19]: Toxic; Tm [20]: 49 °C; Activity [21]: inactive |
